Data published in patent publication US20110230476A1, “PI3 KINASE INHIBITORS AND USES THEREOF” (AVILA THERAPEUTICS, INC., priority 2009, published 2011).

What follows are molecules tested against T1, PI3Kα (p110α/p85α) (Homo sapiens, UniProt P42336) (assay: HTRF assay, potency against active PI3Kα). Conditions: HTRF; [ATP]=50 μM, [di-C8-PIP2]=10 μM; 30 min pre-incubation; read-out: PI3Kα Inhibition.
T1 construct: purchased BPS Bioscience (San Diego, Calif.) or Millipore (Billerica, Mass.)
T1 sequence (P42336 whole entry): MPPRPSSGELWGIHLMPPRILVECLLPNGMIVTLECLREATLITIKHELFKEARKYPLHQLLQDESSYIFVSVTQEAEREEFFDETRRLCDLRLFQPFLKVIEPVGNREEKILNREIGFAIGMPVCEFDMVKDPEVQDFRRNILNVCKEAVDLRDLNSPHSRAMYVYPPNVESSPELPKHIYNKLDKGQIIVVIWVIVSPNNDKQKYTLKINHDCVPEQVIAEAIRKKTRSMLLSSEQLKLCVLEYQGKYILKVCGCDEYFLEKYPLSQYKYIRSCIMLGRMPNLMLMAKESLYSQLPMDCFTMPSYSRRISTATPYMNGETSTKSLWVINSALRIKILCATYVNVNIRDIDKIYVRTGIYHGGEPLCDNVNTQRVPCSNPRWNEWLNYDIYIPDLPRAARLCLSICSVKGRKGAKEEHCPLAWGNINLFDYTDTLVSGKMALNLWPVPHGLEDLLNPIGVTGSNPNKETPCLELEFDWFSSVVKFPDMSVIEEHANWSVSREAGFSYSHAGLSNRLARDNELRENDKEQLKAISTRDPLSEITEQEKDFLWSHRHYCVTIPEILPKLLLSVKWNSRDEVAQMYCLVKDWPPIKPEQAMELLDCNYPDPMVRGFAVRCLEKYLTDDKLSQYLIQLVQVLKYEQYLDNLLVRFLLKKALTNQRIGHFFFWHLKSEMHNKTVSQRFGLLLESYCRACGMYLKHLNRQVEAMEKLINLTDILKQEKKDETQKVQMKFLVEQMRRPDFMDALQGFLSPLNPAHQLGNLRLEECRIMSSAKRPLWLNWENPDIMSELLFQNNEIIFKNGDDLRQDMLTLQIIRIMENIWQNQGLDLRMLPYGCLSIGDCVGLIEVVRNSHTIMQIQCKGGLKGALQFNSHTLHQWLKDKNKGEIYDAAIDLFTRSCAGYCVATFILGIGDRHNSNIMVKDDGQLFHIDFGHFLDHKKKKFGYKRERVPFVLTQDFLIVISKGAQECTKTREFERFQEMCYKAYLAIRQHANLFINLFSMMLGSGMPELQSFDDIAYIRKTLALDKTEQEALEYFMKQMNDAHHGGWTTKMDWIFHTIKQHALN
T1 sequence (P27986 whole entry partner): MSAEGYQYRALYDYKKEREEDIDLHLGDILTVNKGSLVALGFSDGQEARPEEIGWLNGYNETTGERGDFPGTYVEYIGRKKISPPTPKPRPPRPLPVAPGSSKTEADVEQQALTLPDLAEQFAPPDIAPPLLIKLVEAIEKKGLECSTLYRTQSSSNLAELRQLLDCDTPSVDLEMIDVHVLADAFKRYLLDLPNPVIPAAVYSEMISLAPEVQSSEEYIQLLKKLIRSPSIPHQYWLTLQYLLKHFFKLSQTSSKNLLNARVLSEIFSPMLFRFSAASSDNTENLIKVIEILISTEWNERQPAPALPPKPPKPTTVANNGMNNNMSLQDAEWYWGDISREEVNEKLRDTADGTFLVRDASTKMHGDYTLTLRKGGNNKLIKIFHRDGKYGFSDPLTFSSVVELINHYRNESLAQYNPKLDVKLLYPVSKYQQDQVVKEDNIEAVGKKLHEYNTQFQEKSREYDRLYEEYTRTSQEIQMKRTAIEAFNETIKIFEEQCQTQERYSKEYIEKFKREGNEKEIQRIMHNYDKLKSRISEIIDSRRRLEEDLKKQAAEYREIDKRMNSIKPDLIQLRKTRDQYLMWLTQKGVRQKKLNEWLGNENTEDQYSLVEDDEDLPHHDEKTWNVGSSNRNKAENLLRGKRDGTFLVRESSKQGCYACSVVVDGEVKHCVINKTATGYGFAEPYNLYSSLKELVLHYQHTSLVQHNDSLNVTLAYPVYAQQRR
Format: biochemical
Description: Homogeneous Time Resolved Fluorescence (HTRF) Assay Protocol for Potency Assessment Against the Active Forms of PI3Kα, PI3Kβ, and PI3Kγ
The mechanics of the assay platform are best described by the vendor (Millipore, Billerica, Mass.) on their website at the following URL: www.millipore.com/coa/tech1/74jt4z.
Briefly, Stop solution (Stop A, #33-007 and Stop B, #33-009; 3:1 ratio) and Detection Mix (from DMC, #33-015 with DMA, #33-011 and DMB, #33-013; 18:1:1 ratio) were prepared as recommended by the manufacturer about 2 hrs prior to use. […] Lipid kinase reactions were started with the addition of 5 μL of ATP solution, mixed for 15 sec on a rotary plate shaker and incubated for 30-60 minutes at 25° C. Next, reactions were stopped with a 5 μL addition of Stop solution immediately followed by a 5 μL volume of Detection Mix. […] At the conclusion of each assay, the HTRF ratio from fluorescence emission values for each well was calculated and % Inhibition determined from averaged controls wells (+/−PI3K enzyme). % Inhibition values for each compound were then plotted against inhibitor concentration to estimate IC50 from log [Inhibitor] vs Response, Variable Slope model in GraphPad Prism from GraphPad Software (San Diego, Calif.).
For `CC(C)=CC(=O)C(F)(F)C(F)(F)C(=O)N1CCN(Cc2cc3nc(-c4cccc5[nH]ncc45)nc(N4CCOCC4)c3s2)CC1` [II-a-157, 1-(4-((2-(1H-indazol-4-yl)-4-morpholinothieno[3,2-d]pyrimidin-6-yl)methyl)piperazin-1-yl)-2,2,3,3-tetrafluoro-6-methylhept-5-ene-1,4-dione], the IC50 was 100 to 1000 nM.
Work on `CC(C)=CC(=O)CCC(=O)N1CC=C(c2cc3nc(-c4cnc(N)nc4)nc(N4CCOCC4)c3s2)CC1` [II-a-165, 1-(4-(2-(2-aminopyrimidin-5-yl)-4-morpholinothieno[3,2-d]pyrimidin-6-yl)-5,6-dihydropyridin-1(2H)-yl)-6-methylhept-5-ene-1,4-dione] yielded an IC50 of 10 to 100 nM.
For `CC(C)=CC(=O)CCCC(=O)N1CC=C(c2cc3nc(-c4cnc(N)nc4)nc(N4CCOCC4)c3s2)CC1` [II-a-166, 1-(4-(2-(2-aminopyrimidin-5-yl)-4-morpholinothieno[3,2-d]pyrimidin-6-yl)-5,6-dihydropyridin-1(2H)-yl)-7-methyloct-6-ene-1,5-dione], the IC50 was less than 10 nM.
`C/C(=C\c1ccccn1)C(=O)CCC(=O)N1CCN(Cc2cc3nc(-c4cccc5[nH]ncc45)nc(N4CCOCC4)c3s2)CC1` [II-a-167, (E)-1-(4-((2-(1H-indazol-4-yl)-4-morpholinothieno[3,2-d]pyrimidin-6-yl)methyl)piperazin-1-yl)-5-methyl-6-(pyridin-2-yl)hex-5-ene-1,4-dione] was tested, and the IC50 was 100 to 1000 nM.
`C/C(=C\c1ccccc1)C(=O)CCC(=O)N1CCN(Cc2cc3nc(-c4cccc5[nH]ncc45)nc(N4CCOCC4)c3s2)CC1` [II-a-168, (E)-1-(4-((2-(1H-indazol-4-yl)-4-morpholinothieno[3,2-d]pyrimidin-6-yl)methyl)piperazin-1-yl)-5-methyl-6-phenylhex-5-ene-1,4-dione] gave an IC50 of 100 to 1000 nM.
Molecule `C/C(=C\c1ncc[nH]1)C(=O)CCC(=O)N1CCN(Cc2cc3nc(-c4cccc5[nH]ncc45)nc(N4CCOCC4)c3s2)CC1` [II-a-170, (E)-1-(4-((2-(1H-indazol-4-yl)-4-morpholinothieno[3,2-d]pyrimidin-6-yl)methyl)piperazin-1-yl)-6-(1H-imidazol-2-yl)-5-methylhex-5-ene-1,4-dione] has an IC50 of 100 to 1000 nM.
Work on `C=CC(=O)Nc1cccc(C(=O)N2CC=C(c3cc4nc(-c5cnc(N)nc5)nc(N5CCOCC5)c4s3)CC2)c1` [II-a-171, N-(3-(4-(2-(2-aminopyrimidin-5-yl)-4-morpholinothieno[3,2-d]pyrimidin-6-yl)-1,2,3,6-tetrahydropyridine-1-carbonyl)phenyl)acrylamide] yielded an IC50 of less than 10 nM.
Molecule `O=C(/C=C/c1cnc[nH]1)NCC12CCC(c3cc4nc(-c5cccc6[nH]ncc56)nc(N5CCOCC5)c4s3)(CC1)OC2` [II-a-177, (E)-N-((1-(2-(1H-indazol-4-yl)-4-morpholinothieno[3,2-d]pyrimidin-6-yl)-2-oxabicyclo[2.2.2]octan-4-yl)methyl)-3-(1H-imidazol-5-yl)acrylamide] has an IC50 of 100 to 1000 nM.
`CC(C)=CC(=O)CCCC(=O)N1CC=C(c2cc3nc(-c4cnc(N)nc4)cc(C4=CCOCC4)c3s2)CC1` [II-g-4, 1-(4-(5-(2-aminopyrimidin-5-yl)-7-(3,6-dihydro-2H-pyran-4-yl)thieno[3,2-b]pyridin-2-yl)-5,6-dihydropyridin-1(2H)-yl)-7-methyloct-6-ene-1,5-dione] gave an IC50 greater than 1000 nM.
`C=CC(=O)Nc1ccc(C(=O)N2CC=C(c3cc4nc(-c5cnc(N)nc5)cc(C5=CCOCC5)c4s3)CC2)cc1` [II-g-5, N-(4-(4-(5-(2-aminopyrimidin-5-yl)-7-(3,6-dihydro-2H-pyran-4-yl)thieno[3,2-b]pyridin-2-yl)-1,2,3,6-tetrahydropyridine-1-carbonyl)phenyl)acrylamide] showed an IC50 greater than 1000 nM.
`CC(C)=CC(=O)CCC(=O)N1CCN(Cc2cc3nc(-c4cnc(N)nc4)cc(N4CCOCC4)c3s2)CC1` [II-g-7, 1-(4-((5-(2-aminopyrimidin-5-yl)-7-morpholinothieno[3,2-b]pyridin-2-yl)methyl)piperazin-1-yl)-6-methylhept-5-ene-1,4-dione] showed an IC50 of 100 to 1000 nM.
